# Laboratory results from patent US20080200454A1, “CARBON-LINKED TETRAHYDRO-PYRAZOLO-PYRIDINE MODULATORS OF CATHEPSIN S” (priority 2007, published 2008).
# Where a name gives a salt, the structure may show the parent alone.
# Target: Recombinant human cathepsin S (CatS) (Homo sapiens, UniProt P25774)
# Assay: Recombinant human cathepsin S (CatS) inhibition assay, fluorogenic substrate Z-Valine-Valine-Arginine-AMC;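 also: Baculovirus-expressed CatS in pH 5.0 sodium acetate buffer with DTT and NaCl, fluorescence read each minute over 20 min, inhibition derived from rate slope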
# Conditions: not given
# Recombinant human cathepsin S (CatS), sequence (P25774 115-331): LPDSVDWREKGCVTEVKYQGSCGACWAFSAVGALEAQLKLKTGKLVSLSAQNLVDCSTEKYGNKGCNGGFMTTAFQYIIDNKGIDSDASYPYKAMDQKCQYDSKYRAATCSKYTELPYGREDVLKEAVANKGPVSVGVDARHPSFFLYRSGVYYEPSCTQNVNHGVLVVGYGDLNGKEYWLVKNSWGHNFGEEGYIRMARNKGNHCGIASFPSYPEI
row,Compound,IC50 [nM]
1,"Cc1ccc(S(=O)(=O)NCCCc2cc(-c3nn(CCCN4CCC(N5CCCC5=O)CC4)c4c3CN(S(C)(=O)=O)CC4)ccc2Cl)cc1 [Example 92, N-{3-[2-Chloro-5-(5-methanesulfonyl-1-{3-[4-(2-oxo-pyrrolidin-1-yl)-piperidin-1-yl]-propyl}-4,5,6,7-tetrahydro-1H-pyrazolo[4,3-c]pyridin-3-yl)-phenyl]-propyl}-4-methyl-benzenesulfonamide]",1040
2,"CS(=O)(=O)N1CCc2c(c(-c3ccc(Cl)c(C#Cc4ccc(CNC(=O)c5ccccc5)cc4)c3)nn2CCCN2CCOCC2)C1 [Example 73, N-(4-{2-Chloro-5-[5-methanesulfonyl-1-(3-morpholin-4-yl-propyl)-4,5,6,7-tetrahydro-1H-pyrazolo[4,3-c]pyridin-3-yl]-phenylethynyl}-benzyl)-benzamide]",350
3,"CS(=O)(=O)N1CCc2c(c(-c3ccc(Cl)c(C#Cc4ccc(CNCc5ccc(Cl)cc5)cc4)c3)nn2CCCN2CCN(c3ccc(O)cc3)CC2)C1 [Example 410, 4-(4-{3-[3-(4-Chloro-3-{[4-({[(4-chlorophenyl)methyl]amino}methyl)phenyl]ethynyl}phenyl)-5-(methylsulfonyl)-4,5,6,7-tetrahydro-1H-pyrazolo[4,3-c]pyridin-1-yl]propyl}piperazin-1-yl)phenol]",40
4,"CS(=O)(=O)N1CCc2c(c(-c3ccc(Cl)c(CCc4ccc5[nH]ccc5c4)c3)nn2CCCN2CCOCC2)C1 [Example 2, 3-{4-Chloro-3-[2-(1H-indol-5-yl)-ethyl]-phenyl}-5-methanesulfonyl-1-(3-morpholin-4-yl-propyl)-4,5,6,7-tetrahydro-1H-pyrazolo[4,3-c]pyridine]",350
5,"C[C@H]1COCCN1CCCn1nc(-c2ccc(Cl)c(C#Cc3cccc(CNCc4ccc(Cl)cc4)c3)c2)c2c1CCN(S(C)(=O)=O)C2 [Example 439, 1-[3-({2-Chloro-5-[1-{3-[(3S)-3-methylmorpholin-4-yl]propyl}-5-(methylsulfonyl)-4,5,6,7-tetrahydro-1H-pyrazolo[4,3-c]pyridin-3-yl]phenyl}ethynyl)phenyl]-N-[(4-chlorophenyl)methyl]methanamine]",320
6,"CS(=O)(=O)N1CCc2c(c(-c3ccc(Cl)c(CCc4ccc(Cl)cc4)c3)nn2CCCN2CCOCC2)C1 [Example 57, 3-{4-Chloro-3-[2-(4-chloro-phenyl)-ethyl]-phenyl}-5-methanesulfonyl-1-(3-morpholin-4-yl-propyl)-4,5,6,7-tetrahydro-1H-pyrazolo[4,3-c]pyridine]",230
7,"C[C@H]1COCCN1CCCn1nc(-c2ccc(Cl)c(C#Cc3ccc(Cl)c(CN(CCO)CCO)c3)c2)c2c1CCN(C(=O)C(N)=O)C2 [Example 272, (S)-2-{3-[3-(3-{[Bis-(2-hydroxy-ethyl)-amino]-methyl}-4-chloro-phenylethynyl)-4-chloro-phenyl]-1-[3-(3-methyl-morpholin-4-yl)-propyl]-1,4,6,7-tetrahydro-pyrazolo[4,3-c]pyridin-5-yl}-2-oxo-acetamide]",30
8,"CS(=O)(=O)N1CCc2c(c(-c3ccc(Cl)c(CCCNS(=O)(=O)c4ccccc4C(=O)O)c3)nn2CCCN2CCC(N3CCCC3=O)CC2)C1 [Example 88, 2-{3-[2-Chloro-5-(5-methanesulfonyl-1-{3-[4-(2-oxo-pyrrolidin-1-yl)-piperidin-1-yl]-propyl}-4,5,6,7-tetrahydro-1H-pyrazolo[4,3-c]pyridin-3-yl)-phenyl]-propylsulfamoyl}-benzoic acid, trifluoroacetic acid salt]",520
9,"CC(C)(C)OC(=O)N1Cc2cc(C#Cc3cc(-c4nn(CCCN5CCOCC5)c5c4CN(S(C)(=O)=O)CC5)ccc3Cl)ccc2C[C@H]1C(=O)O [Example 191, (3S)-7-({2-Chloro-5-[5-(methylsulfonyl)-1-(3-morpholin-4-ylpropyl)-4,5,6,7-tetrahydro-1H-pyrazolo[4,3-c]pyridin-3-yl]phenyl}ethynyl)-2-{[(1,1-dimethylethyl)oxy]carbonyl}-1,2,3,4-tetrahydroisoquinoline-3-carboxylic acid]",630
10,"CS(=O)(=O)N1CCc2c(c(-c3ccc(Cl)c(C#CCCc4ccccc4)c3)nn2CCCN2CCOCC2)C1 [Example 42, 3-[4-Chloro-3-(4-phenyl-but-1-ynyl)-phenyl]-5-methanesulfonyl-1-(3-morpholin-4-yl-propyl)-4,5,6,7-tetrahydro-1H-pyrazolo[4,3-c]pyridine]",9750
11,"CS(=O)(=O)N1CCc2c(c(-c3ccc(C(F)(F)F)c(C#Cc4ccc(Cl)cc4)c3)nn2CC(O)CN2CCOCC2)C1 (centres unmarked) [Example 122, 1-{3-[3-(4-Chloro-phenylethynyl)-4-trifluoromethyl-phenyl]-5-methanesulfonyl-4,5,6,7-tetrahydro-pyrazolo[4,3-c]pyridin-1-yl}-3-morpholin-4-yl-propan-2-ol]",260
12,"COC(=O)C1c2ccc(C#Cc3cc(-c4nn(CCCN5CCOCC5)c5c4CN(S(C)(=O)=O)CC5)ccc3Cl)cc2CCN1C(=O)OC(C)(C)C (centres unmarked) [Example 207, 2-(1,1-Dimethylethyl) 1-methyl 6-({2-chloro-5-[5-(methylsulfonyl)-1-(3-morpholin-4-ylpropyl)-4,5,6,7-tetrahydro-1H-pyrazolo[4,3-c]pyridin-3-yl]phenyl}ethynyl)-3,4-dihydroisoquinoline-1,2(1H)-dicarboxylate]",2860
13,"COC(=O)[C@@H](NCc1ccc(C#Cc2cc(-c3nn(CCCN4CCOCC4)c4c3CN(S(C)(=O)=O)CC4)ccc2Cl)cc1)c1ccccc1 [Example 351, Methyl (2S)-({[4-({2-chloro-5-[5-(methylsulfonyl)-1-(3-morpholin-4-ylpropyl)-4,5,6,7-tetrahydro-1H-pyrazolo[4,3-c]pyridin-3-yl]phenyl}ethynyl)phenyl]methyl}amino)(phenyl)ethanoate]",120
14,"CS(=O)(=O)N1CCc2c(c(-c3ccc(Cl)c(C#Cc4ccc5c(c4)CC(C(=O)N4CCOCC4)NC5)c3)nn2CCCN2CCOCC2)C1 (centres unmarked) [Example 483, 6-({2-Chloro-5-[5-(methylsulfonyl)-1-(3-morpholin-4-ylpropyl)-4,5,6,7-tetrahydro-1H-pyrazolo[4,3-c]pyridin-3-yl]phenyl}ethynyl)-3-(morpholin-4-ylcarbonyl)-1,2,3,4-tetrahydroisoquinoline]",140

# Same assay, conditions: CatS IC50
row,Compound,IC50 [nM]
1,"CN1CCc2cc(C#Cc3cc(-c4nn(CCCN5CCOCC5)c5c4CN(S(C)(=O)=O)CC5)ccc3Cl)ccc2C1 [Example 518, 6-({2-Chloro-5-[5-(methylsulfonyl)-1-(3-morpholin-4-ylpropyl)-4,5,6,7-tetrahydro-1H-pyrazolo[4,3-c]pyridin-3-yl]phenyl}ethynyl)-2-methyl-1,2,3,4-tetrahydroisoquinoline]",390
2,"CNCCCNC(=O)c1ccc(C#Cc2cc(-c3nn(CCCN4CCSCC4)c4c3CN(C(N)=O)CC4)ccc2Cl)cc1 [Example 612, 3-{4-Chloro-3-[(4-{[3-(methylamino)propyl]carbamoyl}phenyl)ethynyl]phenyl}-1-(3-thiomorpholin-4-ylpropyl)-1,4,6,7-tetrahydro-5H-pyrazolo[4,3-c]pyridine-5-carboxamide]",80
3,"CS(=O)(=O)N1CCc2c(c(-c3ccc(Cl)c(C#Cc4ccc(CNCc5ccccc5)c(Cl)c4)c3)nn2CCCN2CCOCC2)C1 [Example 545, 1-[2-Chloro-4-({2-chloro-5-[5-(methylsulfonyl)-1-(3-morpholin-4-ylpropyl)-4,5,6,7-tetrahydro-1H-pyrazolo[4,3-c]pyridin-3-yl]phenyl}ethynyl)phenyl]-N-(phenylmethyl)methanamine]",270
4,"C[C@H]1COCCN1CCCn1nc(-c2ccc(Cl)c(C#Cc3ccc(Cl)c(C(=O)NCCCN(C)C(=O)OC(C)(C)C)c3)c2)c2c1CCN(C(=O)C(N)=O)C2 [Example 576, tert-Butyl (3-{[(5-{[5-(5-[amino(oxo)acetyl]-1-{3-[(3S)-3-methylmorpholin-4-yl]propyl}-4,5,6,7-tetrahydro-1H-pyrazolo[4,3-c]pyridin-3-yl)-2-chlorophenyl]ethynyl}-2-chlorophenyl)carbonyl]amino}propyl)methylcarbamate]",50
5,"C[C@H]1COCCN1CCCn1nc(-c2ccc(Cl)c(C#Cc3ccc(CNCc4ccc(Cl)cc4)cc3)c2)c2c1CCN(S(C)(=O)=O)C2 [Example 182, 1-[4-({2-Chloro-5-[1-{3-[(3S)-3-methylmorpholin-4-yl]propyl}-5-(methylsulfonyl)-4,5,6,7-tetrahydro-1H-pyrazolo[4,3-c]pyridin-3-yl]phenyl}ethynyl)phenyl]-N-[(4-chlorophenyl)methyl]methanamine]",80
6,"CS(=O)(=O)N1CCc2c(c(-c3ccc(Cl)c(C#Cc4cccc(CNCC5CCOCC5)c4)c3)nn2CCCN2CCOCC2)C1 [Example 185, 1-[3-({2-Chloro-5-[5-(methylsulfonyl)-1-(3-morpholin-4-ylpropyl)-4,5,6,7-tetrahydro-1H-pyrazolo[4,3-c]pyridin-3-yl]phenyl}ethynyl)phenyl]-N-(tetrahydro-2H-pyran-4-ylmethyl)methanamine]",520
7,"CS(=O)(=O)N1CCc2c(c(-c3ccc(Cl)c(C#Cc4ccc(CNC5CCCC5)cc4)c3)nn2CCCN2CCOCC2)C1 [Example 325, N-{[4-({2-Chloro-5-[5-(methylsulfonyl)-1-(3-morpholin-4-ylpropyl)-4,5,6,7-tetrahydro-1H-pyrazolo[4,3-c]pyridin-3-yl]phenyl}ethynyl)phenyl]methyl}cyclopentanamine]",1450
8,"Cc1ccc(CNCc2ccc(C#Cc3cc(-c4nn(CCCN5CCSCC5)c5c4CN(C(N)=O)CC5)ccc3Cl)cc2)cc1 [Example 173, 3-(4-Chloro-3-{[4-({[(4-methylphenyl)methyl]amino}methyl)phenyl]ethynyl}phenyl)-1-(3-thiomorpholin-4-ylpropyl)-1,4,6,7-tetrahydro-5H-pyrazolo[4,3-c]pyridine-5-carboxamide]",120
9,"CC(=O)NC1CCN(CCCn2nc(-c3ccc(Cl)c(C#Cc4ccc(CNCc5ccc(Cl)cc5)cc4)c3)c3c2CCN(C(N)=O)C3)CC1 [Example 459, 1-{3-[4-(Acetylamino)piperidin-1-yl]propyl}-3-(4-chloro-3-{[4-({[(4-chlorophenyl)methyl]amino}methyl)phenyl]ethynyl}phenyl)-1,4,6,7-tetrahydro-5H-pyrazolo[4,3-c]pyridine-5-carboxamide]",20
